Results taken from patent US8987286B2, “Substituted pyrimido[1,2-b]indazoles and their use as modulators of the Pi3K/Akt pathway” (Bayer Intellectual Property GmbH, priority 2010, dated 2015).
Where a name gives a salt, the structure may show the parent alone.

The compounds below were run against Akt1 (Homo sapiens (Human), UniProt P31749) (assay: Akt1 kinase assay (Akt1 TR-FRET assay)). Conditions: His-tagged human recombinant full-length Akt1, 10 μM ATP, 1 μM peptide substrate.
Format: biochemical
From the text: Biological Assay 1.0: Akt1 Kinase Assay
Akt1 inhibitory activity of compounds of the present invention was quantified employing the Akt1 TR-FRET assay as described in the following paragraphs.
His-tagged human recombinant kinase full-length Akt1 expressed in insect cells was purchased form Invitrogen (part number PV 3599). As substrate for the kinase reaction the biotinylated peptide biotin-Ahx-KKLNRTLSFAEPG (C-terminus in amide form) was used which can be purchased e.g. from the company Biosynthan GmbH (Berlin-Buch, Germany).
For the assay 50 nl of a 100 fold concentrated solution of the test compound in DMSO was pipetted into a black low volume 384 well microtiter plate (Greiner Bio-One, Frickenhausen, Germany), 2 μl of a solution of Akt1 in assay buffer [50 mM TRIS/HCl pH 7.5, 5 mM MgCl2, 1 mM dithiothreitol, 0.02% (v/v) Triton X-100 (Sigma)] were added and the mixture was incubated for 15 min at 22° C. to allow pre-binding of the test compounds to the enzyme before the start of the kinase reaction. Then the kinase reaction was started by the addition of 3 μl of a solution of adenosine-tri-phosphate (ATP, 16.7 μM=>final conc. in the 5 μl assay volume is 10 μM) and substrate (1.67 μM=>final conc. in the 5 μl assay volume is 1 μM) in assay buffer and the resulting mixture was incubated for a reaction time of 60 min at 22° C. The concentration of Akt1 in the assay was adjusted depending of the activity of the enzyme lot and was chosen appropriate to have the assay in the linear range, typical enzyme concentrations were in the range of about 0.05 ng/μl (final conc. in the 5 μl assay volume).
The reaction was stopped by the addition of 5 μl of a solution of HTRF detection reagents (200 nM streptavidine-XL665 [Cisbio] and 1.5 nM anti-phosho-Serine antibody [Millipore, cat. #35-001] and 0.75 nM LANCE Eu-W 1024 labeled anti-mouse IgG antibody [Perkin Elmer]) in an aqueous EDTA-solution (100 mM EDTA, 0.1% (w/v) bovine serum albumin in 50 mM HEPES/NaOH pH 7.5).
The resulting mixture was incubated 1 h at 22° C. to allow the binding of the biotinylated phosphorylated peptide to the streptavidine-XL665 and the antibodies. Subsequently the amount of phosphorylated substrate was evaluated by measurement of the resonance energy transfer from the anti-mouse-IgG-Eu-Chelate to the streptavidine-XL665. Therefore, the fluorescence emissions at 620 nm and 665 nm after excitation at 350 nm was measured in a HTRF reader, e.g. a Rubystar (BMG Labtechnologies, Offenburg, Germany) or a Viewlux (Perkin-Elmer). The ratio of the emissions at 665 nm and at […] was taken as the measure for the amount of phosphorylated substrate. The data were normalised (enzyme reaction without inhibitor=0% inhibition, all other assay components but no enzyme=100% inhibition).

Chain of Akt1 (P31749 whole entry): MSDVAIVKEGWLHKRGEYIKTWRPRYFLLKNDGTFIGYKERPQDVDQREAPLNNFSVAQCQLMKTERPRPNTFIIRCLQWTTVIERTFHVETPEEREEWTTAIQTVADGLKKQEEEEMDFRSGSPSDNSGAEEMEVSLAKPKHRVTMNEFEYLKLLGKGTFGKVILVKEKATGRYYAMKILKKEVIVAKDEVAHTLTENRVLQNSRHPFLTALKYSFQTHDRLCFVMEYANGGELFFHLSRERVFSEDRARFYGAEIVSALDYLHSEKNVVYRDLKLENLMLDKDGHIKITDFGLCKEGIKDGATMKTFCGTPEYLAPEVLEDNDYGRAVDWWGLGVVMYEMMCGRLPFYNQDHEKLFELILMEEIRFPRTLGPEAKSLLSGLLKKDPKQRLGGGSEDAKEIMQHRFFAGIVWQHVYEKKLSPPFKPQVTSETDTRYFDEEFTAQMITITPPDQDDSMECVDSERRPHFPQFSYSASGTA

Structure (SMILES)	IC50 [nM]
NC1(c2ccc(-c3nc4c5cc(F)ccc5nn4c(NC4CC4)c3-c3ccccc3)cc2)CCC1 [Example 2, 2-[4-(1-Aminocyclobutyl)phenyl]-N-cyclopropyl-9-fluoro-3-phenylpyrimido[1,2-b]indazol-4-amine]	528
CNc1c(-c2ccccc2)c(-c2ccc(C3(N)CCC3)cc2)nc2c3cc(F)ccc3nn12 [Example 3, 2-[4-(1-Aminocyclobutyl)phenyl]-9-fluoro-N-methyl-3-phenylpyrimido[1,2-b]indazol-4-amine]	2630
N#Cc1cccc(-c2ccc3c(c2)nn2cc(-c4ccccc4)c(-c4ccc(C5(N)CCC5)cc4)nc32)c1 [Example 4, 3-{2-[4-(1-Aminocyclobutyl)phenyl]-3-phenylpyrimido[1,2-b]indazol-8-yl}-benzonitrile]	140
CS(=O)(=O)c1ccc(-c2ccc3c(c2)nn2cc(-c4ccccc4)c(-c4ccc(C5(N)CCC5)cc4)nc32)cc1 [Example 4.1, 1-{4-[8-(4-Mesylphenyl)-3-phenylpyrimido[1,2-b]indazol-2-yl]-phenyl}cyclobutylamine]	59
NC1(c2ccc(-c3nc4c5ccc(-c6ccc(F)cc6)cc5nn4cc3-c3ccccc3)cc2)CCC1 [Example 4.2, 1-{4-[8-(4-Fluorophenyl)-3-phenylpyrimido[1,2-b]indazol-2-yl]-phenyl}cyclobutylamine]	229
NC1(c2ccc(-c3nc4c5ccc(Br)cc5nn4cc3-c3ccccc3)cc2)CCC1 [Example 4.3, 1-[4-(8-Bromo-3-phenylpyrimido[1,2-b]indazol-2-yl)phenyl]cyclobutylamine hydrochloride]	87
NC1(c2ccc(-c3nc4c5ccc(-c6ccc(F)c(CO)c6)cc5nn4cc3-c3ccccc3)cc2)CCC1 [Example 4.4, 5-{2-[4-(1-Aminocyclobutyl)phenyl]-3-phenylpyrimido[1,2-b]indazol-8-yl}-2-fluorobenzyl alcohol]	43
COc1cc(-c2ccc3c(c2)nn2cc(-c4ccccc4)c(-c4ccc(C5(N)CCC5)cc4)nc32)ccc1F [Example 4.6, 1-{4-[8-(4-Fluoro-3-methoxyphenyl)-3-phenylpyrimido[1,2-b]indazol-2-yl]phenyl}cyclobutylamine]	458
COC(=O)c1ccc2c(c1)nn1cc(-c3ccccc3)c(-c3ccc(C4(N)CCC4)cc3)nc21 [Example 4.8, 2-[4-(1-Aminocyclobutyl)phenyl]-3-phenylpyrimido[1,2-b]indazole-8-carboxylic acid methyl ester]	111
Cc1ccc(-c2ccc3nn4cc(-c5ccccc5)c(-c5ccc(C6(N)CCC6)cc5)nc4c3c2)cc1 [Example 5.1, 1-[4-(3-Phenyl-9-p-tolylpyrimido[1,2-b]indazol-2-yl)phenyl]cyclobutylamine]	120
COC(=O)c1cccc(-c2ccc3nn4cc(-c5ccccc5)c(-c5ccc(C6(N)CCC6)cc5)nc4c3c2)c1 [Example 5.2, 3-{2-[4-(1-Aminocyclobutyl)phenyl]-3-phenylpyrimido[1,2-b]indazol-9-yl}benzoic acid methyl ester]	130
N#Cc1ccc(-c2ccc3nn4cc(-c5ccccc5)c(-c5ccc(C6(N)CCC6)cc5)nc4c3c2)cc1 [Example 6.2, 4-{2-[4-(1-Aminocyclobutyl)phenyl]-3-phenylpyrimido[1,2-b]indazol-9-yl}benzonitrile formiate]	97
NC1(c2ccc(-c3nc4c5cccc(Br)c5nn4cc3-c3ccccc3)cc2)CCC1 [Example 8.1, 1-[4-(7-Bromo-3-phenylpyrimido[1,2-b]indazol-2-yl)phenyl]cyclobutylamine hydrochloride]	170

Compounds with a lower IC50, results first:

IC50 [nM]	Structure (SMILES)
41	NC1(c2ccc(-c3nc4c5cc(Br)ccc5nn4cc3-c3ccccc3)cc2)CCC1 [Example 6.1, 1-[4-(9-Bromo-3-phenylpyrimido[1,2-b]indazol-2-yl)phenyl]cyclobutylamine]
35	NC1(c2ccc(-c3nc4c5ccc(-c6ccc(F)c(O)c6)cc5nn4cc3-c3ccccc3)cc2)CCC1 [Example 4.5, 5-{2-[4-(1-Aminocyclobutyl)phenyl]-3-phenylpyrimido[1,2-b]indazol-8-yl}-2-fluorophenol formiate]
31	NC1(c2ccc(-c3nc4c5cc(-c6ccc(S(N)(=O)=O)cc6)ccc5nn4cc3-c3ccccc3)cc2)CCC1 [Example 6.5, 4-{2-[4-(1-Aminocyclobutyl)phenyl]-3-phenylpyrimido[1,2-b]indazol-9-yl}benzenesulfonamide formiate]
25	CS(=O)(=O)c1cccc(-c2ccc3c(c2)nn2cc(-c4ccccc4)c(-c4ccc(C5(N)CCC5)cc4)nc32)c1 [Example 4.7, 1-{4-[8-(3-Mesylphenyl)-3-phenylpyrimido[1,2-b]indazol-2-yl]phenyl}cyclobutylamine formiate]
23	COC(=O)c1ccc(-c2ccc3c(c2)nn2cc(-c4ccccc4)c(-c4ccc(C5(N)CCC5)cc4)nc32)cn1 [Example 4.13, 5-{2-[4-(1-Aminocyclobutyl)phenyl]-3-phenylpyrimido[1,2-b]indazol-8-yl}pyridine-2-carboxylic acid methyl ester]
21	NC(=O)c1ccc(-c2ccc3c(c2)nn2cc(-c4ccccc4)c(-c4ccc(C5(N)CCC5)cc4)nc32)cc1 [Example 4.10, 4-{2-[4-(1-Aminocyclobutyl)phenyl]-3-phenylpyrimido[1,2-b]indazol-8-yl}benzamide]
19	NC1(c2ccc(-c3nc4c5cc(-c6cn[nH]c6)ccc5nn4cc3-c3ccccc3)cc2)CCC1 [Example 6.7, 1-{4-[3-Phenyl-9-(1H-pyrazol-4-yl)pyrimido[1,2-b]indazol-2-yl]phenyl}-cyclobutylamine]
18	NC1(c2ccc(-c3nc4c5cc(-c6ccc(CO)cc6)ccc5nn4cc3-c3ccccc3)cc2)CCC1 [Example 6.4, 4-{2-[4-(1-Aminocyclobutyl)phenyl]-3-phenylpyrimido[1,2-b]indazol-9-yl}benzyl alcohol formiate]
17	NC1(c2ccc(-c3nc4c5ccc(-c6cn[nH]c6)cc5nn4cc3-c3ccccc3)cc2)CCC1 [Example 4.11, 1-{4-[3-Phenyl-8-(1H-pyrazol-4-yl)pyrimido[1,2-b]indazol-2-yl]-phenyl}cyclobutylamine]
16	NC(=O)c1cccc(-c2ccc3c(c2)nn2cc(-c4ccccc4)c(-c4ccc(C5(N)CCC5)cc4)nc32)c1 [Example 4.9, 3-{2-[4-(1-Aminocyclobutyl)phenyl]-3-phenylpyrimido[1,2-b]indazol-8-yl}benzamide]
16	NC1(c2ccc(-c3nc4c5cc(-c6cccc(CO)c6)ccc5nn4cc3-c3ccccc3)cc2)CCC1 [Example 6.3, 3-{2-[4-(1-Aminocyclobutyl)phenyl]-3-phenylpyrimido[1,2-b]indazol-9-yl}benzyl alcohol formiate]
14	NC1(c2ccc(-c3nc4c5ccc(-c6ccc(O)nc6)cc5nn4cc3-c3ccccc3)cc2)CCC1 [Example 4.12, 5-{2-[4-(1-Aminocyclobutyl)phenyl]3-phenylpyrimido[1,2-b]indazol-8-yl}pyridin-2-ol]
10	NC1(c2ccc(-c3nc4c5cc(-c6ccc(F)c(CO)c6)ccc5nn4cc3-c3ccccc3)cc2)CCC1 [Example 6.6, 5-{2-[4-(1-Aminocyclobutyl)phenyl]-3-phenylpyrimido[1,2-b]indazol-9-yl}-2-fluorobenzyl alcohol]
